Source: PubChem BioAssay (NCI)
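Each compound was tested at five concentrations against cells in 96-well plates for 48 hours. Here, GI50 denotes the concentration required for 50% inhibition of growth. The concentration for full growth arrest is given as TGI.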

What was measured:
Test in all cases: NCI anticancer screen, dose series, 48 h
NCI-H23 lung = test system: NCI-H23 lung
NCI-H460 lung = test system: NCI-H460 lung
NCI-H522 lung = test system: NCI-H522 lung
NCI/ADR-RES ovarian = test system: NCI/ADR-RES ovarian
OVCAR-3 ovarian = test system: OVCAR-3 ovarian
OVCAR-4 ovarian = test system: OVCAR-4 ovarian
OVCAR-5 ovarian = test system: OVCAR-5 ovarian
OVCAR-8 ovarian = test system: OVCAR-8 ovarian
PC-3 prostate = test system: PC-3 prostate
RPMI-8226 leukemia = test system: RPMI-8226 leukemia
RXF 393 renal = test system: RXF 393 renal
SF-268 CNS = test system: SF-268 CNS
SF-295 CNS = test system: SF-295 CNS
SF-539 CNS = test system: SF-539 CNS
SK-MEL-2 melanoma = test system: SK-MEL-2 melanoma
SK-MEL-28 melanoma = test system: SK-MEL-28 melanoma
SK-MEL-5 melanoma = test system: SK-MEL-5 melanoma
SK-OV-3 ovarian = test system: SK-OV-3 ovarian
SN12C renal = test system: SN12C renal
SNB-19 CNS = test system: SNB-19 CNS
SNB-75 CNS = test system: SNB-75 CNS
SR leukemia = test system: SR leukemia
SW-620 colon = test system: SW-620 colon
T-47D breast = test system: T-47D breast
TK-10 renal = test system: TK-10 renal
U251 CNS = test system: U251 CNS
UACC-257 melanoma = test system: UACC-257 melanoma
UACC-62 melanoma = test system: UACC-62 melanoma
UO-31 renal = test system: UO-31 renal

`CSc1ccc(/C(=N/N=C(N)N)c2ccc(Cl)cc2)cc1` gave a GI50 (NCI-H23 lung) of 617 nM, a TGI (NCI-H23 lung) of 12 µM and a GI50 (NCI-H460 lung) of 376 nM. The TGI (NCI-H460 lung) was 1510 nM, the GI50 (NCI-H522 lung) was 213 nM and the TGI (NCI-H522 lung) was 516 nM. The GI50 (NCI/ADR-RES ovarian) was 748 nM, the TGI (NCI/ADR-RES ovarian) was 2870 nM and the GI50 (OVCAR-3 ovarian) was 500 nM. The TGI (OVCAR-3 ovarian) was 4.13 µM, the GI50 (OVCAR-4 ovarian) was 1550 nM and the TGI (OVCAR-4 ovarian) was 13.2 µM. The GI50 (OVCAR-5 ovarian) was 496 nM, the TGI (OVCAR-5 ovarian) was 7.27 µM and the GI50 (OVCAR-8 ovarian) was 607 nM. For the same compound, the TGI (OVCAR-8 ovarian) was 3.87 µM, the GI50 (PC-3 prostate) was 447 nM and the TGI (PC-3 prostate) was 5.22 µM. The GI50 (RPMI-8226 leukemia) was 456 nM, the TGI (RPMI-8226 leukemia) was 3.13 µM and the GI50 (RXF 393 renal) was 509 nM. The TGI (RXF 393 renal) was 2140 nM, the GI50 (SF-268 CNS) was 1060 nM and the TGI (SF-268 CNS) was 6.63 µM. It also gave a GI50 (SF-295 CNS) of 368 nM, a TGI (SF-295 CNS) of 1570 nM and a GI50 (SF-539 CNS) of 291 nM. For the same compound, the TGI (SF-539 CNS) was 935 nM, the GI50 (SK-MEL-2 melanoma) was 473 nM and the TGI (SK-MEL-2 melanoma) was 3.84 µM. For the same compound, the GI50 (SK-MEL-28 melanoma) was 957 nM, the TGI (SK-MEL-28 melanoma) was 2350 nM and the GI50 (SK-MEL-5 melanoma) was 949 nM. For the same compound, the TGI (SK-MEL-5 melanoma) was 2160 nM, the GI50 (SK-OV-3 ovarian) was 593 nM and the TGI (SK-OV-3 ovarian) was 14.3 µM. For the same compound, the GI50 (SN12C renal) was 500 nM, the TGI (SN12C renal) was 2210 nM and the GI50 (SNB-19 CNS) was 696 nM. The TGI (SNB-19 CNS) was 14.2 µM, the GI50 (SNB-75 CNS) was 380 nM and the TGI (SNB-75 CNS) was 4.14 µM. The GI50 (SR leukemia) was 349 nM, the TGI (SR leukemia) was 2300 nM and the GI50 (SW-620 colon) was 480 nM. It also gave a TGI (SW-620 colon) of 1960 nM, a GI50 (T-47D breast) of 558 nM and a TGI (T-47D breast) of 4.94 µM. For the same compound, the GI50 (TK-10 renal) was 2830 nM, the TGI (TK-10 renal) was 12.6 µM and the GI50 (U251 CNS) was 382 nM. It also gave a TGI (U251 CNS) of 2170 nM, a GI50 (UACC-257 melanoma) of 891 nM and a TGI (UACC-257 melanoma) of 2520 nM. For the same compound, the GI50 (UACC-62 melanoma) was 707 nM, the TGI (UACC-62 melanoma) was 2420 nM and the GI50 (UO-31 renal) was 1000 nM. For the same compound, the TGI (UO-31 renal) was 4.03 µM.
